# Laboratory results taken from BindingDB's records for doi:10.1021/acs.jmedchem.7b00484 (University of Strathclyde, 2017).
# Target: T1, Inhibitor of nuclear factor kappa-B kinase subunit beta (Homo sapiens, UniProt O14920)
# T1 sequence (O14920 whole entry): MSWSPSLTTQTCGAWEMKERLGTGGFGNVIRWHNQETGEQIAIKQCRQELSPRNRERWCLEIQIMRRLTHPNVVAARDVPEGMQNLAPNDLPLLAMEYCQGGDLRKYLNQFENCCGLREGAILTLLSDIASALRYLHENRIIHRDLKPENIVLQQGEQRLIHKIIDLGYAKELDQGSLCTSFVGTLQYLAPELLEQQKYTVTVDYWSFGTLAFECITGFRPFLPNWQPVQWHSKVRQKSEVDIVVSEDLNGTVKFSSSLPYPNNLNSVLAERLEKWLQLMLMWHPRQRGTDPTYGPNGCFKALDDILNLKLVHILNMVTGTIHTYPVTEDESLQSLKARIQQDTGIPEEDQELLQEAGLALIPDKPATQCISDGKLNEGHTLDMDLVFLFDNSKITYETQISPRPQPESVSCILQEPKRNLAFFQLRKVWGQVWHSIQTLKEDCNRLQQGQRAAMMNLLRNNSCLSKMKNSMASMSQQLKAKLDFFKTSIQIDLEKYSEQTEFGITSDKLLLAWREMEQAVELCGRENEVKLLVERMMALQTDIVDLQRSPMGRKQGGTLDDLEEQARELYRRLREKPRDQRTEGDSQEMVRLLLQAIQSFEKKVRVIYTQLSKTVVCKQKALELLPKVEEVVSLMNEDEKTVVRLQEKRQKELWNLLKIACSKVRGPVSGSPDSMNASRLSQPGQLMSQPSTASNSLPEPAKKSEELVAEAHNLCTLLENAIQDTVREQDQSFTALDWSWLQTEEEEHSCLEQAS
# Test: ChEBML_1690031
# Protocol: Inhibition of recombinant full length human IKKbeta expressed in baculovirus infected sf9 insect cells using biotinylated IkBalpha as substrate after 60 mins by DELFIA
smiles,measurement,value
N#Cc1c[nH]c2nc(N)nc(N[C@@H]3CC[C@@H](O)[C@H]3O)c12,Ki,> 30 µM
